Measurements: patent publication US20110183389A1, “PRODUCTION OF LACTIC ACID FROM HEMICELLULOSE EXTRACTS” (priority 2009, published 2011)
Read-outs that look alike come from different tables or passages of the source.

Test system: Bacillus coagulans MXL-9
Conditions: for fermentation time: control consumed xylose within 14 hours; for Ferment Time / Acetic Acid Produced / Ethanol Produced / Formic Acid Produced / Lactic Acid Prod. Rate / Lactic Acid Produced / Lactic Acid Yield / Total Products Yield / Xylose Consumed: pH 6.5, 50° C.
[1] = 30 g/L inhibitor, 20 g/L xylose
[2] = inhibitor conc. 10 g/L, 20 g/L xylose
[3] = inhibitor conc. 20 g/L, 20 g/L xylose
[4] = inhibitor conc. 30 g/L, 20 g/L xylose

Row | Structure (SMILES) | Ferment Time [2] [h] | Acetic Acid Produced (inhibitor conc. 10 g/L) [g/L] | Ethanol Produced (inhibitor conc. 10 g/L) [g/L] | Formic Acid Produced (inhibitor conc. 10 g/L) [g/L] | Lactic Acid Prod. Rate (inhibitor conc. 10 g/L) [g/L/h] | Lactic Acid Produced (inhibitor conc. 10 g/L) [g/L] | Lactic Acid Yield (inhibitor conc. 10 g/L) [%] | Total Products Yield (inhibitor conc. 10 g/L) [%] | Xylose Consumed (inhibitor conc. 10 g/L) [g/L] | Ferment Time [3] [h] | Acetic Acid Produced (inhibitor conc. 20 g/L) [g/L] | Ethanol Produced (inhibitor conc. 20 g/L) [g/L] | Formic Acid Produced (inhibitor conc. 20 g/L) [g/L] | Lactic Acid Prod. Rate (inhibitor conc. 20 g/L) [g/L/h] | Lactic Acid Produced (inhibitor conc. 20 g/L) [g/L] | Lactic Acid Yield (inhibitor conc. 20 g/L) [%] | Total Products Yield (inhibitor conc. 20 g/L) [%] | Xylose Consumed (inhibitor conc. 20 g/L) [g/L] | Ferment Time [4] [h] | Acetic Acid Produced (inhibitor conc. 30 g/L) [g/L] | further results
1 | CC(=O)O [HAc, acetic acid] | 17 | 0.0 | 1.0 | 1.1 | 1.0 | 17.3 | 81.0 | 90.7 | 21.4 | 22 | 0.0 | 0.8 | 0.5 | 0.9 | 19.3 | 93.6 | 99.8 | 20.6 | 60 | 0.0 | fermentation time (10 g/L inhibitor): complete in under a day; fermentation time (20 g/L inhibitor): complete in under a day; lag phase [1]: longer lag phase; overall lactic acid yield [1]: not diminished; fermentation time (30 g/L inhibitor): two days; Ethanol Produced (inhibitor conc. 30 g/L): 0.4 g/L; Formic Acid Produced (inhibitor conc. 30 g/L): 0.4 g/L; Lactic Acid Prod. Rate (inhibitor conc. 30 g/L): 0.3 g/L/h; Lactic Acid Produced (inhibitor conc. 30 g/L): 18.5 g/L; Lactic Acid Yield (inhibitor conc. 30 g/L): 91.4%; Total Products Yield (inhibitor conc. 30 g/L): 95.3%; Xylose Consumed (inhibitor conc. 30 g/L): 20.2 g/L
2 | [Na] [Na, sodium] | 32 | 0.8 | 0.0 | 1.3 | 0.6 | 18.8 | 83.1 | 92.4 | 22.4 | 62 | 0.7 | 0.0 | 1.3 | 0.3 | 19.6 | 85.9 | 94.5 | 22.7 | 150 | 0.0 | lag time (20 g/L inhibitor, xylose): increased the lag time; overall product yield (20 g/L inhibitor, xylose): did not affect overall product yield; inhibition of xylose fermentation (30 g/L inhibitor): completely inhibitory; cell growth (30 g/L inhibitor, over the course of 6 days): no cell growth occurred; Ethanol Produced (inhibitor conc. 30 g/L): 0.0 g/L; Formic Acid Produced (inhibitor conc. 30 g/L): 0.0 g/L; Lactic Acid Prod. Rate (inhibitor conc. 30 g/L): 0.0 g/L/h; Lactic Acid Produced (inhibitor conc. 30 g/L): 0.0 g/L; Lactic Acid Yield (inhibitor conc. 30 g/L): 2.6%; Total Products Yield (inhibitor conc. 30 g/L): 2.6%; Xylose Consumed (inhibitor conc. 30 g/L): 0.8 g/L
